Data as given in patent US20090215742A1, “AMIDE […]” (PFIZER, INC., priority 2005, published 2009).

Target: T1, HSP-90 (Homo sapiens, UniProt P07900)
T1 construct: fused on or other part: 6-His tag at the C-terminus
Assay: HSP-90 SPA (scintillation proximity assay) competition binding assay, displacement of tritiated propyl-Geldanamycin
Details: for inhibition at 1 µM: read-out: % inhibition @ 1 μM; for inhibition at 10 µM: read-out: % inhibition @ 10 μM
Experimental: Compounds of the present invention were evaluated for potency against HSP-90 using a SPA (scintillation proximity assay) competition binding assay. Briefly, either full length or N-terminal HSP-90 that contains a 6-His tag on its C-terminus binds to copper on Yttrium-silicate scintillant beads via the His-tag. Tritiated propyl-Geldanamycin (pGA), whose structure is shown below, is an analog of a natural inhibitor of HSP-90 called Geldanamycin.
Tritiated pGA, which contains a tritiated propyl-amine group added at the #17 position, binds HSP-90 and brings the isotope into proximity with the beads. […] The beta signal emitted from the isotope excites the scintillant, which creates a measurable signal. As competitive compounds are added to the assay mixture, they compete with bound tritiated pGA at the ATP-binding site on the N-terminal of HSP-90. When a compound displaces the labeled pGA, the signal is reduced (the beta-particles are no longer in proximity with the bead). This reduction in signal is used to quantify the extent to which the inhibitor/compound is competitive with pGA.
Typical reaction solutions contained 30 nM HSP-90 and 200 nM ^3H-pGA in binding buffer (100 mM Hepes, pH 7.5 and 150 mM KCl). […] Inhibitors were added to the HSP-90/^3H-pGA solutions at eleven different concentrations for Ki determinations. […] To determine percent inhibition, the compound was tested at 1 and 10 μM. The final DMSO in the samples was 4%. Copper-Ysi beads (Amersham, #RPNQ0096) that have been diluted in binding buffer were added to each well to give a final concentration of 100 μg/well. The plates were sealed, covered with a foil-covered lid and shaken for 30 minutes at room temperature. The beads were allowed to settle for 30 minutes after which the plates were counted using a Packard TopCount NXT instrument. This procedure has also been adapted for medium throughput using a Beckman Biomek FX. Samples were run in duplicate and on two separate days to assure an accurate value of Ki.
For Ki determinations, the corrected cpm's (actual cpm's minus background) were plotted vs. inhibitor concentration using GraphPad Prism software. […] The IC50 was then used to calculate the Ki by using the Cheng-Prusoff equation: […]
This is normally true when the observed IC50 is […] the HSP-90 concentration. For a tight binding inhibitor, the following equation can be applied: […]
EL and ELo are the radioligand-HSP-90 complexes in the presence and absence of inhibitor, respectively. EL/ELo represents the fractional signal in the presence of inhibitor. Io, Eo, and Lo are the inhibitor, HSP-90, and radioligand concentrations, respectively.

| Structure (SMILES) | inhibition at 1 µM | inhibition at 10 µM |
| --- | --- | --- |
| CC1CCN(C(=O)c2ccc(O)cc2O)CC1 [Example 42, 4-[(4-methylpiperidin-1-yl)carbonyl]benzene-1,3-diol] | 59.9% | 86.5% |
| Nc1nccc(-c2ccc(O)c(C(=O)N3Cc4ccccc4C3)c2)n1 [Example 31, 4-(2-aminopyrimidin-4-yl)-2-(1,3-dihydro-2H-isoindol-2-ylcarbonyl)phenol] | 8.1% | 12.9% |
| O=C(c1ccc(O)cc1O)N1CCC(O)(c2ccc(Cl)cc2)CC1 [Example 76, 4-{[4-(4-chlorophenyl)-4-hydroxypiperidin-1-yl]carbonyl}benzene-1,3-diol] | 48.4% | 81% |
| O=C(c1ccc(O)cc1O)N1CCC(c2ccnc(C(F)(F)F)n2)CC1 [Example 83, 4-({4-[2-(trifluoromethyl)pyrimidin-4-yl]piperidin-1-yl}carbonyl)benzene-1,3-diol] | 10.1% | 35% |
| O=C(c1ccc(O)cc1O)N1CCC(Cc2ccc(Cl)cc2)CC1 [Example 43, 4-{[4-(4-chlorobenzyl)piperidin-1-yl]carbonyl}benzene-1,3-diol] | 35.9% | 73.6% |
| O=C(c1ccc(O)cc1O)N1CCC(c2ccccc2)C1 (stereo not shown) [Example 93, 4-[(3-phenylpyrrolidin-1-yl)carbonyl]benzene-1,3-diol] | 34.5% | 76.1% |
| CN(Cc1ccc(Oc2ccccc2)cc1)C(=O)c1ccc(O)cc1O [Example 107, 2,4-dihydroxy-N-methyl-N-(4-phenoxybenzyl)benzamide] | 51.1% | 83.4% |
| O=C(c1ccc(O)cc1O)N1CCC(c2ccccc2)(c2ccccc2)CC1 [Example 54, 4-[(4,4-diphenylpiperidin-1-yl)carbonyl]benzene-1,3-diol] | 50.3% | 85.5% |
| CN(Cc1ccccc1Cl)C(=O)c1ccc(O)cc1O [Example 113, N-(2-chlorobenzyl)-2,4-dihydroxy-N-methylbenzamide] | 53% | 81.9% |
| O=C(c1ccc(O)cc1O)N1CCN(c2nc(-c3ccccc3C(F)(F)F)cc(=O)[nH]2)CC1 [Example 126, 2-[4-(2,4-dihydroxybenzoyl)piperazin-1-yl]-6-[2-(trifluoromethyl)phenyl]pyrimidin-4(3H)-one] | 35.9% | 71% |
| O=C(c1ccc(F)cc1O)N1Cc2ccccc2C1 [Example 29, 2-(1,3-dihydro-2H-isoindol-2-ylcarbonyl)-5-fluorophenyl] | 0% | 26.6% |
| C[C@H]([C@@H](O)c1ccccc1)N(C)C(=O)c1ccc(O)cc1O [Example 53, 2,4-dihydroxy-N-(2-hydroxy-1-methyl-2-phenylethyl)-N-methylbenzamide] | -7.8% | 7.3% |
| CN(CCc1ccccc1)C(=O)c1ccc(O)cc1O [Example 108, 2,4-dihydroxy-N-methyl-N-(2-phenylethyl)benzamide] | 40.5% | 83.1% |
| O=C(c1ccc(O)cc1O)N1CCC(CCc2ccccc2)C1 (stereo not shown) [Example 65, 4-{[3-(2-phenylethyl)pyrrolidin-1-yl]carbonyl}benzene-1,3-diol] | 69.7% | 87% |
| O=C(c1ccc(O)cc1O)N1CCC(CCc2cncnc2)CC1 [Example 50, 4-{[4-(2-pyrimidin-5-ylethyl)piperidin-1-yl]carbonyl}benzene-1,3-diol] | 34.6% | 77.7% |
| CCc1nccc(-c2ccc(O)c(C(=O)N3Cc4ccccc4C3)c2)n1 [Example 34, 2-(1,3-dihydro-2H-isoindol-2-ylcarbonyl)-4-(2-ethylpyrimidin-4-yl)phenol] | -3.1% | 43% |
| O=C1CCCN1Cc1nnc2n1CCN(C(=O)c1ccc(O)cc1O)CC2 [Example 91, 1-{[7-(2,4-dihydroxybenzoyl)-6,7,8,9-tetrahydro-5H-[1,2,4]triazolo[4,3-d][1,4]diazepin-3-yl]methyl}pyrrolidin-2-one] | -7.3% | 12.2% |
| O=C(c1cc(-c2cc[nH]n2)ccc1O)N1Cc2ccccc2C1 [Example 33, 2-(1,3-dihydro-2H-isoindol-2-ylcarbonyl)-4-(1H-pyrazol-3-yl)phenol] | 2% | 20.9% |

| Structure (SMILES) | inhibition at 1 µM | inhibition at 10 µM |
| --- | --- | --- |
| Cc1ccccc1C1CCCN1C(=O)c1ccc(O)cc1O (stereo not shown) [Example 73, 4-{[2-(2-methylphenyl)pyrrolidin-1-yl]carbonyl}benzene-1,3-diol] | 82.7% | 91.6% |
| Cc1ccc(C(=O)N2Cc3ccccc3C2)c(O)c1 [Example 27, 2-(1,3-dihydro-2H-isoindol-2-ylcarbonyl)-5-methylphenol] | 0.2% | 26.2% |
| O=C(c1ccc(O)cc1O)N1CCCC(COc2cccc(Cl)c2)C1 (stereo not shown) [Example 59, 4-({3-[(3-chlorophenoxy)methyl]piperidin-1-yl}carbonyl)benzene-1,3-diol] | 58.6% | 82.9% |
| Cc1ccc(OCC2CCCN(C(=O)c3ccc(O)cc3O)C2)cn1 (stereo not shown) [Example 60, 4-[(3-{[(6-methylpyridin-3-yl)oxy]methyl}piperidin-1-yl)carbonyl]benzene 1,3-diol] | 77.6% | 88.1% |
| CCOC(=O)C1CCCN(C(=O)c2ccc(O)cc2O)C1 (stereo not shown) [Example 52, ethyl 1-(2,4-dihydroxybenzoyl)piperidine-3-carboxylate] | 39.1% | 80.2% |
| O=C(c1ccc(O)cc1O)N1CCC(COc2cccc(Cl)c2)C1 (stereo not shown) [Example 87, 4-({3-[(3-chlorophenoxy)methyl]pyrrolidin-1-yl}carbonyl)benzene-1,3-diol] | 36.7% | 65% |
| CN(C(=O)c1ccc(O)cc1O)[C@H]1CCCC[C@@H]1O [Example 45, 2,4-dihydroxy-N-(2-hydroxycyclohexyl)-N-methylbenzamide] | 9.6% | 38.3% |
| COc1ccc2cc(O)c(C(=O)N3Cc4ccccc4C3)cc2c1 [Example 25, 3-(1,3-dihydro-2H-isoindol-2-ylcarbonyl)-6-methoxy-2-naphthol] | 9.9% | 13.7% |
| O=C(c1ccc(O)cc1O)N1CCc2ccccc2C1c1ccccc1 (stereo not shown) [Example 103, (2,4-Dihydroxy-phenyl)-(1-phenyl-3,4-dihydro-1H-isoquinolin-2-yl)-methanone] | 64.5% | 87.8% |
| O=C(c1ccc(O)cc1O)N1CCCN(c2nc3cc(Cl)ccc3o2)CC1 [Example 88, 4-{[4-(5-chloro-1,3-benzoxazol-2-yl)-1,4-diazepan-1-yl]carbonyl}benzene-1,3-diol] | 4.3% | 42.9% |
| CN(Cc1nc2ccccc2o1)C(=O)c1ccc(O)cc1O [Example 123, N-(1,3-benzoxazol-2-ylmethyl)-2,4-dihydroxy-N-methylbenzamide] | 25.5% | 65.6% |
| CN(Cc1nnc(-c2ccc(F)cc2)o1)C(=O)c1ccc(O)cc1O [Example 119, N-{[5-(4-fluorophenyl)-1,3,4-oxadiazol-2-yl]methyl}-2,4-dihydroxy-N-benzamide] | 50.9% | 82.8% |
| O=C(c1ccc(O)cc1O)N1CCCCC1c1cccc(F)c1 (stereo not shown) [Example 57, 4-{[2-(3-fluorophenyl)piperidin-1-yl]carbonyl}benzene-1,3-diol] | 73.7% | 88.2% |
| Cc1noc(C)c1COCC1COCCN(C(=O)c2ccc(O)cc2O)C1 (stereo not shown) [Example 98, 4-[(6-{[(3,5-dimethylisoxazol-4-yl)methoxy]methyl}-1,4-oxazepan-4-yl)carbonyl]benzene-1,3-diol] | 26.7% | 65.9% |
| CC(C)CN(C)C(=O)c1ccc(O)cc1O [Example 39, 2,4-dihydroxy-N-isobutyl-N-methylbenzamide] | 11.3% | 52.3% |
| O=C(c1ccc(O)cc1O)N1CCC(O)(c2ccccc2)CC1 [Example 77, 4-[(4-hydroxy-4-phenylpiperidin-1-yl)carbonyl]benzene-1,3-diol] | 44.6% | 79.6% |
| O=C(c1ccc(O)cc1O)N1CCN(c2cnccn2)CC1 [Example 111, 4-[(4-pyrazin-2-ylpiperazin-1-yl)carbonyl]benzene-1,3-diol] | 5.9% | 64.2% |
